The subject of the experiment is citric acid-induced cough responses. Nature of the experiment: citric acid-induced cough in conscious guinea-pigs (aerosol pre-treatment). The experiment is classed as in vivo, guinea-pig. The following applies: aerosol 10.0 mg/ml pre-treatment immediately before citric acid (1M) exposure; 15 minute observation period. The text has this:
The following method is one of the general methods available to determine the antitussive activity of the compounds of the present invention.
Male albino Dunkin-Hartley strain guinea-pigs (weight 300-400 g) can be obtained from various commercial suppliers.
The method is a modification of that described by Adcock J. J., Schneider C. and Smith T. W., “Effects of Morphine and a Novel Opioid Pentapeptide BW443C, on Cough, Nociception and Ventilation in the Unanaesthetized Guinea-pig”, Br. J. Pharmacol., 93, 93-100 (1988). […]
Cylinder air is introduced into the exposure chamber at a flow rate of 1 liter/min, maintained by a needle valve and monitored by a rotameter. […]
Cough responses are induced by exposure to an aerosol of citric acid (1M) for 10 minutes. Animals are continuously monitored by trained observer, and the number of coughs are counted during a 15 minute period from commencement of the citric acid aerosol administration. […]
The three types of response are differentiated primarily by sound and visual observation. […] Each cough is marked on the Grass polygraph paper trace, and from these record numbers, frequency and time of onset of coughs are determined. […]
Quantities of drugs are weighed out and dissolved in a vehicle. […] The sequence of pre-treatment administration is determined according to a 4×4 Latin Square design. […]

Consider `CC(C)[N+](C)(C)CC(O)COc1cccc2ccccc12.[I-]` (stereo not shown) [N,N-dimethyl-propranolol iodide, 2-Hydroxy-N-isopropyl-N,N-dimethyl-3-(1-naphthyloxy)propan-1-aminium iodide], for which the “inhibition of cough responses compared with vehicle (saline) pre-treated guinea pigs” value is listed as 50-70%.

The values are drawn from patent publication US20050197383A1, “Quaternary ammonium compounds and their use as anti-tussive agents” (UCB Farchim S.A., priority 1999, published 2005).
